From BindingDB's records for doi:10.1016/s0960-894x(99)00565-x (Dupont Pharmaceuticals, 1999)

Molecular target: T1, Gag-Pol polyprotein [588-1027]/[588-1147] (Human immunodeficiency virus 1, UniProt P04585)
T1 construct: 588-1027; 588-1147
Experiment: HIV-1 RT Assay
Conditions: pH 8.2; 37 °C

SMILES	IC50 [nM]
CC(=O)Nc1ccc2c(c1)C(C#CC1CC1)(C(F)(F)F)OC(=O)N2 (configuration not stated)	> 2000
CC(=O)Nc1ccc2c(c1)C(C#CC(C)C)(C(F)(F)F)OC(=O)N2 (configuration not stated)	> 2000
